Data reported in the NIST ThermoML archive (doi:10.1016/j.tca.2006.10.025).
± gives the expanded uncertainty stated by the source.

How the values were obtained:
[1] = molar heat capacity at constant pressure; xn = mol fraction of the nth substance listed; conditions: 303.15 K, 101 kPa, Liquid, Small sample (50 mg) DSC
[2] = excess molar enthalpy (molar enthalpy of mixing); xn = mol fraction of the nth substance listed; conditions: 303.15 K, 101 kPa, Liquid, Flow calorimetry
[3] = molar heat capacity at constant pressure; conditions: 101.33 kPa, Liquid, Small sample (50 mg) DSC
[4] = 303.15 K; 101.33 kPa; Liquid; Vibrating tube method

C[S+](C)[O-] [dimethyl sulfoxide] + CO
Conditions	excess molar enthalpy [kJ/mol]	molar heat capacity at constant pressure [J/K/mol]
[1], x1 = 0.0308	–	84 ± 1.3
[1], x1 = 0.061	–	85.8 ± 1.3
[1], x1 = 0.1103	–	88.3 ± 1.4
[1], x1 = 0.197	–	93.9 ± 1.5
[1], x1 = 0.2818	–	97.8 ± 1.5
[1], x1 = 0.3571	–	102.3 ± 1.6
[1], x1 = 0.4676	–	109.7 ± 1.7
[1], x1 = 0.5886	–	116.1 ± 1.8
[1], x1 = 0.6833	–	124.6 ± 1.9
[1], x1 = 0.8398	–	137.5 ± 2.1
[1], x1 = 0.9068	–	142.5 ± 2.2
[1], x1 = 0.923	–	144.6 ± 2.2
[2], x1 = 0.0176	0.008 ± 0.001	–
[2], x1 = 0.0233	0.009 ± 0.001	–
[2], x1 = 0.0455	0.003 ± 0.001	–
[2], x1 = 0.0667	-0.011 ± 0.001	–
[2], x1 = 0.087	-0.032 ± 0.002	–
[2], x1 = 0.1251	-0.081 ± 0.002	–
[2], x1 = 0.1601	-0.133 ± 0.003	–
[2], x1 = 0.2223	-0.227 ± 0.004	–
[2], x1 = 0.276	-0.298 ± 0.004	–
[2], x1 = 0.3639	-0.38 ± 0.005	–
[2], x1 = 0.4619	-0.428 ± 0.006	–
[2], x1 = 0.5336	-0.433 ± 0.006	–
[2], x1 = 0.6318	-0.412 ± 0.006	–
[2], x1 = 0.6959	-0.373 ± 0.005	–
[2], x1 = 0.7744	-0.317 ± 0.004	–
[2], x1 = 0.8207	-0.253 ± 0.004	–
[2], x1 = 0.8728	-0.185 ± 0.003	–
[2], x1 = 0.9321	-0.097 ± 0.002	–

CCO [ethanol]
[3]
Conditions	molar heat capacity at constant pressure [J/K/mol]
288.15 K	108.8 ± 1.7
293.15 K	111 ± 1.7
298.15 K	113.5 ± 1.8
303.15 K	115.7 ± 1.8
308.15 K	118.6 ± 1.8
313.15 K	121.6 ± 1.9
318.15 K	125.1 ± 1.9
323.15 K	128.2 ± 2

Conditions	mass density [kg/m3]
[4]	780.79 ± 0.16

CCCCCCO [hexan-1-ol]
[3]
Conditions	molar heat capacity at constant pressure [J/K/mol]
288.15 K	231.6 ± 3.6
293.15 K	237.5 ± 3.7
298.15 K	241.3 ± 3.7
303.15 K	246 ± 3.8
308.15 K	251 ± 3.9
313.15 K	256.2 ± 4
318.15 K	262.5 ± 4.1
323.15 K	268.9 ± 4.2

Conditions	mass density [kg/m3]
[4]	811.39 ± 0.31

CCCCCCO [hexan-1-ol] + C[S+](C)[O-]
Conditions	excess molar enthalpy [kJ/mol]	molar heat capacity at constant pressure [J/K/mol]
[1], x2 = 0.1102	–	239.9 ± 3.7
[1], x2 = 0.1949	–	231.7 ± 3.6
[1], x2 = 0.2888	–	222.5 ± 3.4
[1], x2 = 0.3759	–	216.5 ± 3.4
[1], x2 = 0.4388	–	211.5 ± 3.3
[1], x2 = 0.535	–	199.2 ± 3.1
[1], x2 = 0.5365	–	199.4 ± 3.1
[1], x2 = 0.6311	–	190.4 ± 3
[1], x2 = 0.7339	–	181.8 ± 2.8
[1], x2 = 0.8062	–	171 ± 2.6
[1], x2 = 0.8704	–	164.7 ± 2.6
[1], x2 = 0.9359	–	158.8 ± 2.5
[2], x2 = 0.0682	0.361 ± 0.007	–
[2], x2 = 0.1277	0.64 ± 0.009	–
[2], x2 = 0.1801	0.847 ± 0.011	–
[2], x2 = 0.2265	1.01 ± 0.013	–
[2], x2 = 0.3053	1.2 ± 0.015	–
[2], x2 = 0.3694	1.3 ± 0.016	–
[2], x2 = 0.4677	1.36 ± 0.017	–
[2], x2 = 0.5394	1.36 ± 0.017	–
[2], x2 = 0.6374	1.28 ± 0.016	–
[2], x2 = 0.7251	1.17 ± 0.015	–
[2], x2 = 0.7786	1.04 ± 0.013	–
[2], x2 = 0.8406	0.865 ± 0.011	–
[2], x2 = 0.8755	0.746 ± 0.01	–
[2], x2 = 0.9134	0.56 ± 0.009	–
[2], x2 = 0.9336	0.454 ± 0.008	–
[2], x2 = 0.9547	0.331 ± 0.008	–
[2], x2 = 0.9768	0.181 ± 0.007	–

CO [methanol]
[3]
Conditions	molar heat capacity at constant pressure [J/K/mol]
288.15 K	78.1 ± 1.2
293.15 K	79.3 ± 1.2
298.15 K	81 ± 1.3
303.15 K	82.2 ± 1.3
308.15 K	83.4 ± 1.3
313.15 K	85.6 ± 1.3
318.15 K	87.5 ± 1.4
323.15 K	89.5 ± 1.4

Conditions	mass density [kg/m3]
[4]	781.81 ± 0.16

CCCCCCCCO [octan-1-ol]
[3]
Conditions	molar heat capacity at constant pressure [J/K/mol]
288.15 K	294.2 ± 4.6
293.15 K	300.3 ± 4.7
298.15 K	304.4 ± 4.7
303.15 K	309.2 ± 4.8
308.15 K	314.4 ± 4.9
313.15 K	319.5 ± 5
318.15 K	326.2 ± 5.1
323.15 K	332.7 ± 5.2

Conditions	mass density [kg/m3]
[4]	818.24 ± 0.18

CCCCCCCCO [octan-1-ol] + C[S+](C)[O-]
Conditions	excess molar enthalpy [kJ/mol]	molar heat capacity at constant pressure [J/K/mol]
[1], x2 = 0.0953	–	296.5 ± 4.6
[1], x2 = 0.1847	–	284.2 ± 4.4
[1], x2 = 0.3137	–	264.7 ± 4.1
[1], x2 = 0.3478	–	256.2 ± 4
[1], x2 = 0.4629	–	241.9 ± 3.7
[1], x2 = 0.5855	–	221.6 ± 3.4
[1], x2 = 0.6299	–	215.1 ± 3.3
[1], x2 = 0.7302	–	200.6 ± 3.1
[1], x2 = 0.7656	–	193.2 ± 3
[1], x2 = 0.842	–	182.1 ± 2.8
[1], x2 = 0.8956	–	173.1 ± 2.7
[1], x2 = 0.9603	–	162.4 ± 2.5
[2], x2 = 0.0847	0.47 ± 0.008	–
[2], x2 = 0.1562	0.815 ± 0.011	–
[2], x2 = 0.2173	1.07 ± 0.014	–
[2], x2 = 0.2702	1.21 ± 0.015	–
[2], x2 = 0.3571	1.39 ± 0.017	–
[2], x2 = 0.4254	1.47 ± 0.018	–
[2], x2 = 0.5262	1.48 ± 0.019	–
[2], x2 = 0.5968	1.47 ± 0.018	–
[2], x2 = 0.6896	1.39 ± 0.017	–
[2], x2 = 0.7692	1.27 ± 0.016	–
[2], x2 = 0.8163	1.14 ± 0.015	–
[2], x2 = 0.8696	0.956 ± 0.013	–
[2], x2 = 0.8988	0.814 ± 0.012	–
[2], x2 = 0.9302	0.626 ± 0.01	–
[2], x2 = 0.9467	0.507 ± 0.01	–
[2], x2 = 0.9638	0.363 ± 0.01	–
[2], x2 = 0.9816	0.196 ± 0.01	–

CCCO [propan-1-ol]
[3]
Conditions	molar heat capacity at constant pressure [J/K/mol]
288.15 K	139 ± 2.2
293.15 K	142.3 ± 2.2
298.15 K	144.9 ± 2.2
303.15 K	148.3 ± 2.3
308.15 K	151 ± 2.3
313.15 K	153.7 ± 2.4
318.15 K	157.1 ± 2.4
323.15 K	160.1 ± 2.5

Conditions	mass density [kg/m3]
[4]	795.48 ± 0.15
